Data on two molecules can be found in patent US20230330089A1, “COVID PREVENTION AND TREATMENT USING AN INTEGRIN INHIBITOR” (priority 2022, published 2023).

The conditions of series [1]: Phase I, solid tumors; cited from earlier work.
In series [2] the test system is VsVg positive control lentivirus. Format: cell-based. The note with it: HSAE cells pre-treated with 20 nM to 1 μM for 2 hours; 24 hour infection.
The subject of the next series is TGF-β signaling. Particulars: breast cancer cells; cited from earlier work.
Another series deals with ACE2. The note with it: cited from earlier work.
A further series concerns SARS-CoV-2 pseudovirus. The note with it: cited from earlier work.

As for `COc1ccc(S(=O)(=O)N[C@@H](CNc2nc(C)nc(N3CCC(c4ccc5c(n4)NCCC5)CC3)c2C)C(=O)O)cc1` [GLPG-0187], the “toxicity profile in patients” value in series [1] was “favorable toxicity profile”. Besides, the “effect on VsVg positive control infection” value in series [2] is listed as “no effect of the inhibitor was observed”. The “effect on TGF-β signaling” value in the series with TGF-β signaling is reported as “decreased TGF-β signaling”.

`CNS(=O)(=O)Nc1nccc(Cc2c(C)c3ccc(Oc4ncccn4)cc3oc2=O)c1F` [VS-6766]: in the series on ACE2, the “cellular expression of ACE2” value was “reduce cellular expression of ACE2”. Also, in the series on SARS-CoV-2 pseudovirus, the “pseudovirus infection of multiple human cell types” value is listed as “inhibit pseudovirus infection”.
